Reference: article PMC11066877, “Development and Characterization of Novel FAP-Targeted Theranostic Pairs: A Bench-to-Bedside Study” (Research, 2023)
Read-outs that look alike come from different tables or passages of the source.

Tests used:
HT1080-FAP tumor = assay: FAP-targeted radioligand therapy in HT1080-FAP tumor models; format: in vivo, mice
Experimental: (§1) HT1080-FAP tumor models with higher levels of FAP expression were utilized in this study. Tumor-bearing mice were subjected to therapy experiments when the tumor volume reached 50 to 180 mm^3. Tumor models with different tumor volumes were injected with different therapeutic doses. Mice bearing HT1080-FAP tumors of slightly larger tumor volumes were randomly assigned into 4 groups (n = 5 per group): control group and treatment groups with 800 μCi of [^177Lu]Lu-DOTA-FD1, 400 μCi of [^177Lu]Lu-DOTA-FD3, and 600 μCi [^177Lu]Lu-DOTA-FD3. Mice bearing HT1080-FAP tumors of slightly smaller tumor volumes were also divided into 4 groups (n = 6 per group): control group and treatment groups with 200 μCi of [^177Lu]Lu-DOTA-FD1, 200 μCi of [^177Lu]Lu-DOTA-FD2, and 200 μCi of [^177Lu]Lu-DOTA-FD3. Tumor volume and mice body weight were examined daily after a single-dose injection. Weight monitoring is expressed as a percentage of initial weight on the measurement day. Tumor volume was measured as half of the length × width squared times. Mice were euthanized when the tumor volume exceeded 1,500 mm^3, the tumor ruptured, or when it lost more than 20% of its body weight. T3M-4 tumor models with abundant stroma were established to validate the therapeutic efficacy of [^177Lu]Lu-DOTA-FD3. When the tumor volume grew to 100 to 150 mm^3, the mice were randomly divided into 2 groups (n = 7 per group): free ^177Lu treatment group and 500 μCi [^177Lu]Lu-DOTA-FD3 treatment group. Tumor volume and mice body weight were examined every 2 days.

[1] = Stability of 177Lu-labeled radiopharmaceuticals in FBS and PBS; format: in vitro ADME; conditions: 50% FBS and 50% PBS, checked at 2 h and 24 h
Experimental: To perform ^68Ga-labeling, approximately 20 nmol of FD1, FD2, or FD3 was dissolved in 20 μl of dimethyl sulfoxide and 230 μl of sterile deionized water. This mixture was added to 400 μl of ^68GaCl3 solution (containing 37 MBq) in 0.1 M HCl, with pH adjusted to 4.0 using 0.1 M NH4OAC. The mixture was incubated at 100 °C for 10 min without any additional purification steps. For ^177Lu-labeling, high-purity radionuclide ^177LuCl3 in 0.04 M HCl (3.9 GBq in 97 μl) was purchased from ITM (Munich, Germany). ^177LuCl3 solution (555 MBq in 0.04 M HCl) was added to 500 μl of 1M NH4OAC (pH = 5), followed by the addition of 375 nmol of FD1, FD2, or FD3. The solution was shaken at a temperature of 100 °C for a duration of 30 min. Instant thin-layer chromatography (iTLC; Eckert & Ziegler Radiopharma Inc.) was used to evaluate the RCP of the final products. For iTLC, the mobile phase consisted of 1 M NH4OAC and methyl alcohol in a ratio of 1:1. The final solution must be adjusted to pH 7.0 before being injected into the experimental mice via the tail vein. The stability of ^177Lu-labeled radiopharmaceuticals was evaluated in a mixture of 50% FBS and 50% PBS at 2 h and 24 h after preparation. In the process of preparing each [^68Ga]Ga-DOTA-FD1 for clinical imaging, the end product underwent sterilization by passing it through a 0.22-μm Millipore filter.

[2] = Ex vivo biodistribution of 177Lu-labeled radioligands in tumor-free nude mice; conditions: mouse, blood, intravenous, 1.11 MBq, total radioactivity, 24 h p.i., read-out: accumulation in the blood pool (biodistribution)
Excerpt: (§2) After imaging collection and image reconstruction, samples from euthanized experimental mice, including blood and multiple significant organs, were harvested and weighed. The radioactivity in each collected tissue was counted using an automated gamma counter (Wizard 2480, PerkinElmer) and the accumulation of radioactivity in different tissues and organs was quantified and expressed as %ID/g (mean ± SD). [^177Lu]Lu-DOTA-FD1 (~1.11 MBq, n = 3), [^177Lu]Lu-DOTA-FD2 (~1.11 MBq, n = 3), and [^177Lu]Lu-DOTA-FD3 (~1.11 MBq, n = 3) were injected into the tail vein of free nude mice at 6 h, 24 h, and 24 h for ex vivo biodistribution to verify the circulation time of the 3 probes in vivo. Biodistribution data from tumor-bearing mice injected with [^177Lu]Lu-DOTA-FD3 at 45 h (~1.11 MBq, n = 4) and 90 h (~1.11 MBq, n = 3) validated the prolonged enrichment of the probe at the tumor site. At the end of each probe imaging and radioactivity counting study, tumor tissues were fixed in paraformaldehyde tissue fixative. Briefly, sections of 10 μm were cut and stained for H&E following the standard protocols. IHC staining with a FAP antibody (ab227703, Abcam) was performed only on tumor tissues following accepted techniques.

T3M-4 tumor = assay: Radioligand therapy in T3M-4 pancreatic cancer models; format: in vivo, mice; conditions: T3M-4 models
Experimental: as §1, with “When the tumor volume grew to 100 to 150 mm^3, the mice were randomly divided into 2 groups (n = 7 per group): free ^177Lu treatment group and 500 μCi [^177Lu]Lu-DOTA-FD3 treatment group. Tumor volume and mice body weight were examined every 2 days.” left out

[3] = Ex vivo biodistribution of [177Lu]Lu-DOTA-FD3 in HT1080-FAP tumor models; design: species or system mice; conditions: nude (thymus-free), mouse, 1.11 MBq, total radioactivity
Excerpt: as §2

[4] = average tumor volume 180 mm^3 at onset, single dose 400 μCi or 600 μCi

Q: Which results are given for `CCCCCC(=O)N[C@H]1CSCc2cc(CSCCNC(=O)[C@H](CCCCNC(=O)CCCc3ccc(I)cc3)NC(=O)[C@@H](NC(=O)[C@H](CCSC)NC(=O)CN3CCN(CC(=O)O)CCN(CC(=O)O)CCN(CC(=O)O)CC3)C(C)C)cc(c2)CSC[C@@H](C(=O)O)NC(=O)[C@H](Cc2ccccc2)NC(=O)[C@H](CCC(N)=O)NC(=O)[C@H]([C@@H](C)O)NC(=O)[C@@H]2CCCN2C(=O)[C@@H]2CCCN2C1=O` [[^177Lu]Lu-DOTA-FD3, metal not drawn]?
A: tumor growth at the end of the study (HT1080-FAP tumor; average tumor volume 50 mm^3 at onset, single dose 200 μCi): substantially inhibited the tumor growth; mice that acquired complete response (CR) (HT1080-FAP tumor; average tumor volume 50 mm^3 at onset, single dose 200 μCi, 6 mice per group): 3 out of the 6; tumor relapse (HT1080-FAP tumor; [4]): relapsed from day 14 onward; tumor volume change after treatment (HT1080-FAP tumor; [4]): began to shrink from day 2; stable in FBS and PBS, no significant demetallation [1]: at least 24 h; tissue uptake at 24 h [2]: 28.1 ± 3.52 %ID/g; mice weight versus free 177Lu treatment group (T3M-4 tumor; 500 μCi): slightly dropped; tumor volume until the end of the observation (T3M-4 tumor; tumor volume around 135 mm^3 at onset, [177Lu]Lu-DOTA-FD3 at 500 μCi): satisfactorily controlled; tissue uptake at 45 h ([3]; 45 h, read-out: tumor uptake (biodistribution)): 10.5 ± 1.02 %ID/g; tissue uptake at 90 h ([3]; 90 h, read-out: tumor uptake (biodistribution)): 12.4 ± 3.12 %ID/g; tissue uptake at 45 h ([3]; blood, 45 h p.i., read-out: blood pool retention (biodistribution)): 16.3 ± 2.5 %ID/g; tissue uptake at 90 h ([3]; blood, 90 h p.i., read-out: blood pool retention (biodistribution)): 11.5 ± 1.54 %ID/g
